Experimental data: patent US5451506A, “Oncostatin M and novel compositions having anti-neoplastic activity” (Oncogen Limited Partnership, priority 1993, dated 1995)
Where “and” joins values, the source holds several entries; their conditions need not be identical. Identical values can stand only once.

How the values were obtained:
[1] = tested on: A375 tumor cells; assay: Inhibition of growth of A375 tumors in nude mice; format: in vivo; conditions: for Cumulative Tumor Size: 3 mice
Procedure: A375 tumor cells (2.3×10^6) or an appropriate number of cells of another cell line of interest were injected subcutaneously in the interscapular region of nude mice. When the tumors became palpable, half of the mice were inoculated subcutaneously proximal to the tumor with either (a) 100 μl PBS containing 1.6 μg bovine serum albumin (BSA) or (b) 100 μl PBS containing 1.6 μg BSA plus the test sample. The mice were inoculated in the same manner every 2-3 days until about 19 days after the first inoculation. The diameter and width of each tumor was measured every 2-3 days using calipers.
Six nude mice were injected with A375 cells as described in Example 1D, above. After the tumors became palpable, the mice were injected, proximal to the tumor, with PBS (control) or PBS containing 400 ng Oncostatin M, three mice in each group.
The cumulative sizes (mm^2) of the tumors in each group of three mice were determined every 2-3 days.

[2] = tested on: A375 cells; assay: Growth inhibition assay (A375 proliferation; synergy tests); format: cell-based, human; conditions: 1.8 U/ml, alone
Procedure: A375 melanoma cells (4×10^3 cells/50 μl), Mv1Lu mink lung epithelial cells (3.5×10^3 cells/50 μl), or other cell line of interest at an appropriate cell density were subcultured for four hours on flat-bottomed 96-well tissue culture plates (Costar 3596, Cambridge, Mass.) in growth medium comprising Dulbecco's modified Eagle's medium (DMEM), supplemented with 10% heat-in-activated fetal bovine serum, and P/S. Test samples to be assayed for growth inhibition were diluted in growth medium and assayed in triplicate with 50 μl of the diluted sample added to each well. The cells were incubated for 72 hours at 37° C.
The growth inhibitory activity of highly purified TGF-β1, recombinant gamma-interferon (rIFN-γ), and Oncostatin M on A375 cells was determined, and possible synergy between TGF-β1 and Oncostatin M, TGF-β1 and rIFN-γ, and Oncostatin M and rIFN-γ in inhibiting A375 proliferation was tested. […] is expressed in units of Mv1Lu growth inhibitory activity, rIFN-γ in units of anti-viral activity and Oncostatin M in units of A375 growth inhibitory activity. Concentrations of TGF-β1 (1-30 U/ml) and Oncostatin M (0.5-10 U/ml) were chosen which caused either no or only minimal growth inhibition when tested individually.

[3] = tested on: human proliferative or cytotoxic T cell responses; assay: Mixed leukocyte culture reactions (MLC); format: cell-based; conditions: 500 GIA units/ml

Oncostatin M: Human polypeptide growth regulator produced by activated leukocytes; apparent molecular weight approximately 28 kD by PAGE
Tumor size relative to control animals ([1]; 400 ng Oncostatin M vs PBS): about half the size of those in control animals | Tumor weight relative to control-treated mice ([1]; 400 ng Oncostatin M vs PBS, after 21 days): approximately one-third the weight of the tumors from the control-treated mice | Cumulative Tumor Size ([1]; day 0 after treatment, 400 ng, PBS 70): 50 mm^3 | Cumulative Tumor Size ([1]; day 3 after treatment, 400 ng, PBS 116): 64 mm^3 | Cumulative Tumor Size ([1]; day 5 after treatment, 400 ng, PBS 130): 66 mm^3 | Cumulative Tumor Size ([1]; day 7 after treatment, 400 ng, PBS 160): 90 mm^3 | Cumulative Tumor Size ([1]; day 10 after treatment, 400 ng, PBS 180): 88 mm^3 | Cumulative Tumor Size ([1]; day 12 after treatment, 400 ng, PBS 210): 100 mm^3 | Cumulative Tumor Size ([1]; day 14 after treatment, 400 ng, PBS 268): 116 mm^3 | Cumulative Tumor Size ([1]; day -1 after treatment, 400 ng s.c. proximal to tumor every 2-3 days, PBS 30): 30 mm^3 | Tumor Wt ([1]; individual mice (No. 94, 97, 95) after 21 days, PBS mice 540, 440, 480): 100 mg and 140 mg and 200 mg | Inhibition of cell growth [2]: 12% | Proliferative or cytotoxic T cell responses in MLC [3]: does not suppress
